Data from patent US7842684B2, “Diphenylazetidinone derivatives possessing cholesterol absorption inhibitor activity” (AstraZeneca AB, priority 2006, dated 2010).

Columns and labels:
[1] = Absorption in a Caco-2 cells model; assay type: in vitro ADME; conditions: human
Protocol: Absorption of the compounds of formula (I) was tested in a Caco-2 cells model (Gastroenterology 1989, 96, 736): […]

[2] = tested on: 14C-cholesterol absorption; experiment: In Vivo Testing of Cholesterol Absorption Inhibitors (A); conditions: 0.2 μmol/kg by gavage, procedure A, C57BL/6 female mice
Protocol: In Vivo Testing of Cholesterol Absorption Inhibitors (A)
C57BL/6 female mice were maintained on regular chow diet and housed in individual cages to collect faeces. Mice were fasted for 3 hours and then gavaged with vehicle or compound. Half an hour later the mice were gavaged with radiolabelled cholesterol. Six hours after the ^14C-cholesterol gavage blood samples were taken via the tail and plasma prepared to determine how much cholesterol were absorbed. 24 hours after the gavage of ^14C-cholesterol the mice were bled and plasma were prepared for analysis. Faeces were collected for 24 hours to assess absorption efficiency.

Row | Compound | Papp [1] [×10⁻⁶ cm/s] | inhibition of 14C-cholesterol absorption [2] [%]
1 | CS(=O)(=O)NCC#Cc1ccc(N2C(=O)[C@H](SC[C@H](O)c3ccc(F)cc3)[C@H]2c2ccc(OCC(=O)NCC(=O)N[C@H](CC3CCCCC3)C(=O)O)cc2)cc1 [Example 1, N-({4-[(2R,3R)-3-{[(2R)-2-(4-fluorophenyl)-2-hydroxyethyl]thio}-1-(4-{3-[(methylsulfonyl)amino]prop-1-yn-1-yl}phenyl)-4-oxoazetidin-2-yl]phenoxy}acetyl)glycyl-3-cyclohexyl-D-alanine] | 0.04 | –
2 | CC(C)[C@@H](NC(=O)CNC(=O)COc1ccc([C@@H]2[C@@H](SC[C@H](O)c3ccc(F)cc3)C(=O)N2c2ccc(C#CCNS(C)(=O)=O)cc2)cc1)C(=O)O [Example 2, N-({4-[(2R,3R)-3-{[(2R)-2-(4-fluorophenyl)-2-hydroxyethyl]thio}-1-(4-{3-[(methylsulfonyl)amino]prop-1-yn-1-yl}phenyl)-4-oxoazetidin-2-yl]phenoxy}acetyl)glycyl-D-valine] | 0.02 | –
3 | CS(=O)(=O)NCC#Cc1ccc(N2C(=O)[C@H](SC[C@H](O)c3ccc(F)cc3)[C@H]2c2ccc(OCC(=O)NCC(=O)O)cc2)cc1 [Example 6, N-({4-[(2R,3R)-3-{[(2R)-2-(4-fluorophenyl)-2-hydroxyethyl]thio}-1-(4-{3-[(methylsulfonyl)amino]prop-1-yn-1-yl}phenyl)-4-oxoazetidin-2-yl]phenoxy}acetyl)glycine] | – | 90
